Measurements: patent EP0470323A2, “New salts of the nicotinic acid with aminobenzylic compounds and their pharmaceutical use” (BROMLEY LIMITED, priority 1990, dated 1992)

Key:
HeLa cells (DnA-repair) = experiment: Mutagenic action of urines of intragastrically treated rats on HeLa cells (DNA repair); format: cell-based, human; conditions: urines of rats treated intragastrically with two doses, with metabolic activation, beta-glucoronidase absent
[1] = tested on: Hypertriglyceridaemia caused by ethanole in the rats; experiment: Hypertriglyceridaemia caused by ethanol in rats, activity at three dose levels; format: in vivo; conditions: rat; for Triglycerids M ± E.S.: 4 hours after last treatment; for Triglycerids % vs contr. positivi: 4 hours after treatment
Description: For this test group the methods described by Sistori C.R. and colleagues (Atherosclerosis 30, 45; 1978) is followed.
The hypertriglyceridaemia has been induced into the male rats having a body weight of 160 - 170 g by giving them to drink, for 4 consecutive days, a solution of 10% ethanole in water.

[2] = tested on: aggregation of the platelets caused by the collagene; experiment: Anti-aggregating ex vivo activity against collagen in the rat; conditions: for Latency time (sec.) / Transmittance percentage (maximum aggregation): PRP 2 hours after last treatment, collagene 4 mcg/ml
Protocol: Six groups of 15 male rats of 200 - 250 g have been used.
The blood taken from the three rats of each group has been mixed and centrifuged during 6 minutes at 1400 rpm, at room temperature. After having taken the plasma full of platelets (PRP) the thereunder floating material has been centrifuged again (4000 rpm during 10 minutes) in order to have the plasma with few platelets (PPP) separated from the balance. The PRP has been diluted with a part of PPP in order to bring the number of platelets to 350 ± 50 x 10³/mm³. The aggregation has been evaluated in accordance with the method of Minsker D.H. and coll. (J. Pharmacol.Exp.Ther. 210 37 1979) by using an ELVI 840 two-channels aggregometer and an Omniscribe recorder B.500. A quantity of 0,25 ml PRP has been used, transferred into the aggregometer for two minutes at 37°C and stirred at 1000 rpm. The light intensity was arranged in such a way, to obtain 0% transmittance with the PRP and 100% with the PPP. After 2′ incubation, by means of microsyringe the collagene was added to the PRP in a volume quantity of 5 mcl with the final concentration of 4 mcg/ml.
From the aggregation trace of the recorder the following data have been evaluated: • a) latent time of the aggregation (seconds between the introductions of collagene and the starting of the aggregation) • b) transmittance increase percentage (maximum aggregation). The same proceeding was repeated for all animals, always by mixing the blood of three rats belonging to the same group and by obtaining in this manner five aggregation curves per group.

[3] = tested on: Central artery of a rabbit's ear; experiment: In vitro antispastic action, adrenalin-induced spasm of the perfused isolated artery; conditions: spasm induced by Adrenalin, n=4, listed as Compound accord.Ex.1
Protocol: An "in vitro" method has been used, according to which the withdrawal of the central artery of a rabbit's ear with the relevant nervous connections and the equipment of an appropriate seat for secluded organs was designed (Fleckenstein A., British Journal of Pharmacology 7, 533, 1952).
On the artery they did install a three-ways tube, connected with a peristaltic pump and with a mercury manometer to record the perfusion pressure. The artery was perfused with a rebs liquid at the speed of 2,5 ml/minute. The contractions were induced by injecting into the vessel 0,1 ml adrenalin at the concentration of 1 mcg/ml. The compound according to the example 1 has been added to the bath at concentrations of 0,5 - 1 - 2 uM, five minutes before the adrenalin (four preparations per concentration). As comparison drugs, chlorhydra ted Buflomedil and Papaverin have been used. The activity of the material under investigation has been appreciated in terms of percentages referring to the concentration induced by the Adrenalin (and expressed with DE₅₀) and the relevant forbidding.

[4] = rat, 1,00 mM/kg os for 4 days, listed as Compound according to the Example N° 1

**Q.** For `COc1cc(OC)c(C(=O)CCCN2CCCC2)c(OC)c1` [Example 1, 4-(1 pyrrholydinyl)-1-(2,4,6 trimethoxypheniyl)-1-nicotinized butanone], which mutagenic action (HeLa cells (DnA-repair)) is on record?
**A.** any mutagenic action did not result

**Q.** What about the “Triglycerids M ± E.S.” value ([1]; dose 0,5 mM/kg/os once a day for 4 days) of the same compound?
**A.** 148,2 ± 16,4 mg/100 ml

**Q.** And the “Triglycerids % vs contr. positivi” value ([1]; dose 0,5 mM/kg/os)?
**A.** -26,8%

**Q.** And the “Triglycerids M ± E.S.” value ([1]; dose 1,0 mM/kg/os once a day for 4 days)?
**A.** 135,0 ± 12,6 mg/100 ml

**Q.** What about the “Triglycerids % vs contr. positivi” value ([1]; dose 1,0 mM/kg/os) of the same compound?
**A.** -33,6%

**Q.** And the “Triglycerids M ± E.S.” value ([1]; dose 2,0 mM/kg/os once a day for 4 days)?
**A.** 112,6 ± 14,3 mg/100 ml

**Q.** What about the “Triglycerids % vs contr. positivi” value ([1]; dose 2,0 mM/kg/os) of the same compound?
**A.** -44,4%

**Q.** And the “decrease (of triglycerides vs positive controls)” value (“decrease” below) ([1]; dose of 0,4 mM/kg)?
**A.** 26,8%

**Q.** What about the “decrease” value ([1]; dose of 1 mM/kg per os) of the same compound?
**A.** 33,3%

**Q.** What about the “decrease” value ([1]; dose of 2 mM/kg) of the same compound?
**A.** 44,4%

**Q.** What about the “Latency time, % variation vs controls” value ([2]; rat, 0,25 mM/kg os for 4 days) of the same compound?
**A.** +15,7%

**Q.** And the “Transmittance percentage, % variation vs controls” value ([2]; rat, 0,25 mM/kg os for 4 days)?
**A.** -14,4%

**Q.** What about the “Latency time (sec.)” value ([2]; rat, 0,25 mM/kg os for 4 days) of the same compound?
**A.** 43,4 ± 4,2 sec.

**Q.** What about the “Transmittance percentage (maximum aggregation)” value ([2]; rat, 0,25 mM/kg os for 4 days) of the same compound?
**A.** 67,3 ± 4,4%

**Q.** What about the “Latency time, % variation vs controls” value ([2]; rat, 0,50 mM/kg os for 4 days) of the same compound?
**A.** +38,7%

**Q.** And the “Transmittance percentage, % variation vs controls” value ([2]; rat, 0,50 mM/kg os for 4 days)?
**A.** -34,3%

**Q.** What about the “Latency time (sec.)” value ([2]; rat, 0,50 mM/kg os for 4 days) of the same compound?
**A.** 52,0 ± 3,5 sec.

**Q.** And the “Transmittance percentage (maximum aggregation)” value ([2]; rat, 0,50 mM/kg os for 4 days)?
**A.** 51,6 ± 4,0%

**Q.** And the “Latency time (sec.)” value [2, 4]?
**A.** 64,5 ± 5,4 sec.

**Q.** What about the “Transmittance percentage (maximum aggregation)” value [2, 4] of the same compound?
**A.** 30,2 ± 3,6%

**Q.** And the “Latency time, % variation vs controls” value [2, 4]?
**A.** +72,0%

**Q.** What about the “Transmittance percentage, % variation vs controls” value [2, 4] of the same compound?
**A.** -61,6%

**Q.** What about the “% inhibi-tions of the con-tractions” value ([3]; concentration 0,5 μ M) of the same compound?
**A.** 45%

**Q.** And the “% inhibi-tions of the con-tractions” value ([3]; concentration 1,0 μ M)?
**A.** 70%

**Q.** What about the “% inhibi-tions of the con-tractions” value ([3]; concentration 2,0 μ M) of the same compound?
**A.** 94%

**Q.** What about the EC50 ([3]; read-out: DE50 (the source's name)) of the same compound?
**A.** 580 nM
